Patent US20100189688A1, “Dose forms comprising VX-950 and their dosage regimen” (priority 2007, published 2010)
Values after ≈ are worked out from the molar mass of the structure shown. Values joined by “and” are separate entries in the source; they are usually repeats but may differ in a detail not shown here. Equal entries are not always repeated. Marks after values point to notes of the source that are not given here.

What was measured:
infectious virus = experiment: Infectious virus assay; format: cell-based
[1] = Predicted human liver exposure relative to replicon assay IC50/IC90; conditions: in the dose range studied
HCV genotype 1 = experiment: 14-day multiple-dose study in Hepatitis C positive subjects: plasma HCV RNA (Example 5); format: in vivo, human; conditions: for mean HCV RNA drop: 750 mg q8h
Description: Detection of HCV RNA can be done, e.g., by using the Roche COBAS TaqMan HCV/HPS assay, available from Roche molecular Diagnostics. Subjects (or patients) receiving 750 mg of VX-950 every eight hours for 14 days achieved a median reduction in HCV-RNA of greater than 4 log10 (i.e., 10,000-fold decrease) at the end of the treatment. […] See Example 5 and FIGS. 3-5.
(§1) All other 34 subjects completed the study.
The HCV positive subjects were tested post-treatment to monitor HCV RNA levels' return to baseline.

[2] = tested on: ALT (alanine aminotransferase); experiment: 14-day multiple-dose study: serum ALT / AST levels; format: in vivo, human
Excerpt: The serum alanine aminotransferase (ALT) level can be measured using commercially available methods. Mean ALT levels, elevated at baseline, decreased during dosing in all groups (FIG. 6). Mean ALT levels increased, returned toward baseline, in all dose groups during follow up.

[3] = Multiple-dose study (Example 5): tolerability and VX-950 plasma trough levels; format: in vivo, human
Description: as §1
The assay for determined VX-950 concentration in human plasma was performed by methods well known in the art. See, e.g., Wasley, A. et al., Semin. Liver Dis., 20:1-16, 2000; Alter, H. J. et al., Semin. Liver Dis., 20: 17-35, 2000; Brown, R. S. Jr. et al., Liver Transpl., 9: S10-S13, 2003; DeFrancesco, R. et al., Nature, 436(7053): 953-960, 2005; Bowen, D. G. et al., J. Hepatol., 42: 408-417, 2005; Hoofnagle, J. H., Hepatology, 36: S21-S29, 2002, Brown, R. S. Jr. et al., Nature, 436 (7053): 973-978, 2005; and Chisari, F. V., Nature, 436(7053): 930-932, 2005.
Sample Preparation: 100 μL of plasma and 100 μL of internal standard working solution (or acetonitrile for blank samples) were added to an extraction tube. After vortex mixing for 30 seconds, 500 μL of toluene was added and extraction was performed by vortex mixing for 30 seconds. After centrifugation at 3000 rpm at 4° C. for 5 minutes, the aqueous layer was frozen in a mixture of acetone and dry ice and the organic layer was transferred to another extraction tube. 50 μL of 2,2-dimethoxypropane was added and the samples were evaporated to dryness under nitrogen at approximately 30° C. The residue was re-dissolved in 300 μL of a mixture of heptane and acetone (90:10, v/v) [or a mixture of heptane and THF (80:20, v/v)] by vortex mixing for 60 seconds. […]

HCV NS3/4A protease = HCV NS3/4A protease (Hepatitis C virus genotype 1a, UniProt P27958); experiment: In vitro cleavage of TRIF by HCV NS3 protease; format: biochemical; conditions: 10 μM VX-950, tNS3 0-4 μM
Description: The 35S methionine labeled coupled in vitro transcription/translation product of TRIF protein (as a substrate) was incubated with increasing concentration of tNS3 protease enzyme ranging from 0-4 μM either in the presence (Circles) or absence (Squares) of 10 μM VX-950, followed by SDS-PAGE and exposure to phosphorimager.

[4] = human, in vivo
Description: (§2) A dose escalation scheme was used that combined dose doubling and modified Fibonacci to be aggressive in the lower dose range and conservative in the higher dose range.
(§3) A pharmacokinetics analysis was performed using the statistical moment approach.

[5] = in vivo
WT-HCV protease-SEAP = conditions: SCID mice expressing WT-HCV protease-SEAP; cited from earlier work
clinical = conditions: male, human, in vivo, po
Description: as §2, §3

[6] = tested on: hepatitis C virus (HCV) replicon; experiment: HCV replicon cell assay; conditions: 48 h
neopterin = experiment: 14-day multiple-dose study: serum neopterin (ELISA)
IFN-β promoter activity = experiment: IFN-β promoter luciferase activity in Sendai virus stimulated Huh7 cells expressing HCV protease; conditions: 10 μM VX-950, Huh7 cells, Sendai virus stimulation, 16 hours post-infection
[7] = Single-dose escalation tolerance and pharmacokinetics study in healthy male volunteers (Example 3); conditions: single doses 25 mg to 1250 mg
Description: as §2, §3

genotype 1 hepatitis C = experiment: Phase 1b 14-day study of VX-950, VX-950/Peg-IFN-2a or Peg-IFN-2a followed by Peg-IFN-2a/RBV: HCV RNA and SVR (Example 9); conditions: for patients who achieved SVR: 14 days of VX-950 (alone or in combination with PEG-IFN) then PEG-IFN with RBV
HCV = conditions: monotherapy, fraction of cases; cited from earlier work
[8] = of the 8 subjects receiving 750 mg q8h
[9] = at the completion of the 14-day dosing period

Sequence of HCV NS3/4A protease (P27958 1027-1208, other chains not shown): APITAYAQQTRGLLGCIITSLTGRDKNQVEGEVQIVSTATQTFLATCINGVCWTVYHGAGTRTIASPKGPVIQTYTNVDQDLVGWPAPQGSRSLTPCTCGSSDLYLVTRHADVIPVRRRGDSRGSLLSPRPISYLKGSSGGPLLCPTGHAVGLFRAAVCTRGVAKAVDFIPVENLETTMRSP

## CCC[C@H](NC(=O)[C@@H]1[C@H]2CCC[C@H]2CN1C(=O)[C@@H](NC(=O)[C@@H](NC(=O)c1cnccn1)C1CCCCC1)C(C)(C)C)C(=O)C(=O)NC1CC1 [VX-950]
Infectious virus
  IC50: 0.196 µg/mL (≈ 0.288 µM)
[1]
  predicted average liver concentration as multiple of replicon assay IC50: up to 113 fold
  predicted average liver concentration as multiple of replicon assay IC90: up to 57 fold
HCV genotype 1; 450 mg q8h (n = 10)
  Maximum change from baseline in HCV RNA (log10 IU/mL): subjects in category >−1 to <0: 0 n (%)
  Maximum change from baseline in HCV RNA (log10 IU/mL): subjects in category >−2 to ≦−1: 0 n (%)
  Maximum change from baseline in HCV RNA (log10 IU/mL): subjects in category >−3 to ≦−2: 1 (10.0) n (%)
  Maximum change from baseline in HCV RNA (log10 IU/mL): subjects in category >−4 to ≦−3: 7 (70.0) n (%)
  Maximum change from baseline in HCV RNA (log10 IU/mL): subjects in category >−5 to ≦−4: 0 n (%)
  Maximum change from baseline in HCV RNA (log10 IU/mL): subjects in category ≧−5: 2 (20.0) n (%)
HCV genotype 1; 750 mg every eight hours, end of 14 days
  median reduction in HCV-RNA: greater than 4 log10
HCV genotype 1; 750 mg q8h (n = 8)
  Maximum change from baseline in HCV RNA (log10 IU/mL): subjects in category >−1 to <0: 0 n (%)
  Maximum change from baseline in HCV RNA (log10 IU/mL): subjects in category >−2 to ≦−1: 0 n (%)
  Maximum change from baseline in HCV RNA (log10 IU/mL): subjects in category >−3 to ≦−2: 0 n (%)
  Maximum change from baseline in HCV RNA (log10 IU/mL): subjects in category >−4 to ≦−3: 3 (37.5) n (%)
  Maximum change from baseline in HCV RNA (log10 IU/mL): subjects in category >−5 to ≦−4: 3 (37.5) n (%)
  Maximum change from baseline in HCV RNA (log10 IU/mL): subjects in category ≧−5: 2 (25.0) n (%)
HCV genotype 1; day 3
  mean HCV RNA drop: 3.6 log10
HCV genotype 1; day 14
  mean HCV RNA drop: 4.3 log10
HCV genotype 1; 1250 mg q12h (n = 10)
  Maximum change from baseline in HCV RNA (log10 IU/mL): subjects in category >−1 to <0: 0 n (%)
  Maximum change from baseline in HCV RNA (log10 IU/mL): subjects in category >−2 to ≦−1: 0 n (%)
  Maximum change from baseline in HCV RNA (log10 IU/mL): subjects in category >−3 to ≦−2: 1 (10.0) n (%)
  Maximum change from baseline in HCV RNA (log10 IU/mL): subjects in category >−4 to ≦−3: 9 (90.0) n (%)
  Maximum change from baseline in HCV RNA (log10 IU/mL): subjects in category >−5 to ≦−4: 0 n (%)
  Maximum change from baseline in HCV RNA (log10 IU/mL): subjects in category ≧−5: 0 n (%)
HCV genotype 1; all dose groups, during administration
  drop in viral load in every patient: at least 2 log10
HCV genotype 1; each of the other two dose groups (450 mg q8h, 1250 mg q12h), end of 14 days
  median reduction of HCV-RNA: greater than 2 log10
HCV genotype 1; human, in vivo
  effect on HCV replication in humans: effective in inhibiting HCV replication
HCV genotype 1; [8]
  subjects with HCV RNA below the limit of detection (LLD 10 IU/mL): 2
  subjects with HCV RNA below the limit of quantitation (LLQ 30 IU/mL): 4
HCV genotype 1; within the first three days of treatment
  subjects with a 3 log10 reduction in HCV-RNA: 26 of the 28
HCV genotype 1; within the first three days of treatment, all dose groups
  reduction in HCV-RNA achieved by every subject: greater than 2 log10
[2]; 450 mg q8h, day 12, 5 out of 10 samples missing (range 25-125)
  median ALT value: 38 U/I
[2]; 14 days dosing
  effect on ALT levels in vivo: decreases
[2]; upon administration
  effect on AST (aspartate aminotransferase) levels: decreased
[3]; 450 mg, 750 mg or 1250 mg, 5 or 14 days
  tolerability of multiple doses: well tolerated at all dose levels
[3]; about 750 mg three times a day, every 8 hours, compared with other regimens
  trough levels of VX-950 in plasma: highest trough levels
HCV NS3/4A protease
  effect on in vitro cleavage of TRIF by NS3 protease: inhibits in vitro cleavage of TRIF
[4]; po
  oral bioavailability: orally bioavailable
[4]; male
  VX-950 eliminated unchanged in the urine: Less than 2%
[5]
  tolerability: well tolerated
WT-HCV protease-SEAP
  effect on elevated ALT levels in an animal model: ameliorates elevated ALT levels
clinical
  Tmax: 3 h
[6]; read-out: IC50 in the replicon assay
  IC50: ~0.24 µg/mL (≈ 0.353 µM)
[6]; read-out: IC90 in the replicon assay
  IC90: ~0.476 µg/mL (≈ 0.7 µM)
neopterin; 750 mg q8h, day 14 (baseline 10.48±0.84 nmol/L; ULN 7.7)
  mean neopterin level: 7.32 ± 0.48 nmol/L
neopterin; 14 days dosing
  effect on neopterin levels in vivo: decreases
IFN-β promoter activity
  effect on WT HCV protease mediated suppression of IFNβ promoter activation: overcomes the WT HCVpro mediated suppression of IFNβ promoter activation
[7]
  tolerability of single doses: well tolerated at all dose levels
Genotype 1 hepatitis C; 2 week treatment
  SVR after a 2 week treatment of VX-950: SVR was achieved in a patient
Genotype 1 hepatitis C; 12 weeks after the last on-study follow-up, patients who continued with Peg-IFN-2a/RBV
  HCV RNA levels at the last off-study follow-up day: undetectable in all patients
Genotype 1 hepatitis C; 14 days
  antiviral activity: rapid and profound antiviral activity
Genotype 1 hepatitis C; treated for 24 weeks
  patients who achieved SVR: 7 of 10
Genotype 1 hepatitis C; treated for 48 weeks
  patients who achieved SVR: 3 of 5
Genotype 1 hepatitis C; 14 days of VX-950 optionally in combination with Peg-INF, followed by Peg-INF/RBV for an additional 22 or 46 weeks
  patients in whom SVR was achieved: 10 of 15
Genotype 1 hepatitis C; [9]
  decrease of HCV RNA levels, generally: at least 2 log10
  decrease of HCV RNA levels, in some cases: at least 4 log10
Genotype 1 hepatitis C; at week 12
  patients with undetectable HCV RNA: 5 of 7
Genotype 1 hepatitis C; at week 24, all patients who received VX-950 (alone or with PEG-IFN)
  patients with undetectable HCV RNA: 15
Genotype 1 hepatitis C; group sizes N 7 / 8 / 4
  Undetectable HCV RNA at 24-week off study peg-IFN-2a/RBV treatment: 7* N
Genotype 1 hepatitis C; patients who stopped Peg-IFN-2a/RBV at week 24
  Undetectable HCV RNA at 12 weeks follow-up after stopping peg-IFN-2a/RBV: 2 of 4 and 2/4

## interferon alfa
HCV
  long term remission: ~25%
